In the NIST ThermoML archive (doi:10.1021/je4000857):
Where “and” joins values, the source holds several entries; their conditions need not be identical. Equal values may be shown once. ± gives the expanded uncertainty stated by the source.

Settings: Liquid

| SMILES | vapor or sublimation pressure (264.05 K) | vapor or sublimation pressure (271.05 K) [kPa] | vapor or sublimation pressure (278.05 K) [kPa] | vapor or sublimation pressure (303.04 K) [kPa] | vapor or sublimation pressure (253.3 K) [kPa] | vapor or sublimation pressure (258.11 K) [kPa] | vapor or sublimation pressure (263.23 K) [kPa] | vapor or sublimation pressure (268.17 K) [kPa] | vapor or sublimation pressure (282.74 K) [kPa] | vapor or sublimation pressure (292.81 K) [kPa] | vapor or sublimation pressure (308.04 K) [kPa] | vapor or sublimation pressure (312.78 K) [kPa] | vapor or sublimation pressure (322.96 K) [kPa] |
| --- | --- | --- | --- | --- | --- | --- | --- | --- | --- | --- | --- | --- | --- |
| CC [ethane] | 1862 ± 36 kPa | 2275 ± 43 | 2700 ± 51 | 4600 ± 87 | – | – | – | – | – | – | – | – | – |
| FC(F)(F)C(F)(F)C(F)(F)F [octafluoropropane] | 298 ± 4 kPa and 297 ± 4 kPa | 383 ± 4 | 483 ± 5 | 995 ± 10 | 194 ± 3 | 238 ± 3 | 287 ± 3 | 343 ± 4 | 553 ± 6 | 743 ± 7 | 1124 ± 11 | 1256 ± 12 | 1604 ± 16 |
